Results: BindingDB's records for patent US9192603 (Vanderbilt University, 2015)

Biological target: Metabotropic glutamate receptor 4 (Homo sapiens, UniProt Q14833)
Assay: Receptor Activity Assay
Experimental: The disclosed compounds and compositions can be evaluated for their ability to act as a potentiator of metabotropic glutamate receptor activity, in particular mGluR4 activity, by any suitable known methodology known in the art. For example, Chinese Hamster Ovary (CHO) cells transfected with human mGluR4 or HEK cells co-transfected with rat mGluR4 and the G-protein regulated Inwardly Rectifying Potassium channel (GIRK) were plated in clear bottom assay plates for assay in a Hamamatsu FDSS Fluorometric Plate Reader. The cells were loaded with either a Ca2+-sensitive fluorescent dye or the thallium responsive dye and the plates were washed and placed into a suitable kinetic plate reader. For human mGluR4 assays, a fluorescence baseline was established for 3-5 seconds, the disclosed compounds were then added to the cells, and the response in cells was measured.

Metabotropic glutamate receptor 4, sequence (Q14833 whole entry): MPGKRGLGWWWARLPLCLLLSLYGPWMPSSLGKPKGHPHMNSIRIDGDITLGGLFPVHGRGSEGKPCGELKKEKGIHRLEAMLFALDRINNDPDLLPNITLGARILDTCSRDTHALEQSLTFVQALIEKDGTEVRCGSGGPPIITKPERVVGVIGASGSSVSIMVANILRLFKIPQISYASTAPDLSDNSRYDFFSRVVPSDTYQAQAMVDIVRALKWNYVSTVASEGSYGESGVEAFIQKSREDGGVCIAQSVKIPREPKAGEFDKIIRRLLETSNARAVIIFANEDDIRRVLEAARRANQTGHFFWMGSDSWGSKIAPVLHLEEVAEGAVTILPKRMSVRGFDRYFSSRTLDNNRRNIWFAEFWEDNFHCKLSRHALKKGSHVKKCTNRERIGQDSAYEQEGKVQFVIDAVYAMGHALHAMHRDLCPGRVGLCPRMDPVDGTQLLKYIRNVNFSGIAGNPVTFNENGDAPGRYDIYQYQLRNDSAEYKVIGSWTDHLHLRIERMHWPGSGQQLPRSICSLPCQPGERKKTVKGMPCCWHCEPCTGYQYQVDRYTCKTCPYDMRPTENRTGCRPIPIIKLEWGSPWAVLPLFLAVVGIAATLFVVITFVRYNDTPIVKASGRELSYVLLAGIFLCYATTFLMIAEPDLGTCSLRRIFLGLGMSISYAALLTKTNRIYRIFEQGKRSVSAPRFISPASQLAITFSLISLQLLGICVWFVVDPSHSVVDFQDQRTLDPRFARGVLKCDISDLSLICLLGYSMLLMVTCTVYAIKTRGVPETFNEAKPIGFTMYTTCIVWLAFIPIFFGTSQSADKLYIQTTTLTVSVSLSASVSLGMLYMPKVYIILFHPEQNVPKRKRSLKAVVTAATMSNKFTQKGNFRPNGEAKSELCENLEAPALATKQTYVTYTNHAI

EC50: > 10 µM
Compound: CC(C)c1nc(NC(=O)c2ccccn2)sc1S(=O)(=O)Cc1ccc(F)cc1F [US9192603, 65]
